In article PMC5981617, “Targeted Delivery of Cell Penetrating Peptide Virus-like Nanoparticles to Skin Cancer Cells” (Scientific Reports, 2018):
Structures can show the parent of a compound that is named as a salt. No end group written: not given here. *: point of attachment. FITC = O=C1OC2(c3ccc(O)cc3Oc3cc(O)ccc32)c2ccc(NC(=S)*)cc21

Key:
Format in all cases: cell-based, human
A431 cells [1] = assay: Endocytosis inhibitory assay (entry of FITC-peptide, fluorescence microscopy); details: 30 min pre-treatment, then FITC-NRPDSAQFWLHH 0.25 mM, 16 h, 37 °C; CPZ 6 µg/mL, MβCD 1.5 mM, Cyt D 10 µg/mL, genistein 200 µM
Experimental: Four endocytosis inhibitors [Cyt D (10 µg/mL; Calbiochem, San Diego, California, USA), CPZ (6 µg/mL; Santa Cruz Biotechnology, Dallas, Texas, USA), MβCD (1.5 mM; Sigma Aldrich, St. Louis, Missouri, USA) and genistein (200 µM; Calbiochem, San Diego, California, USA)] were used to study the energy-dependent endocytosis of peptide […] into A431 cells. The cells (200,000 cells/well) were seeded onto sterile glass coverslips which had been placed in a six-well plate, and incubated at 37 °C for overnight. The medium was then removed and the cells were pretreated with the inhibitors at 37 °C for 30 min. After the pretreatment with inhibitors, FITC-[…] (0.25 mM) was added to the cells and incubated for 16 h at 37 °C in the presence of inhibitors. After removing the medium, the cells were washed, fixed and stained with Hoechst 33342. The cells were mounted onto a glass slide and examined under a fluorescence microscope.

A431 cells [2] = assay: MTT assay, cell viability in the presence of endocytosis inhibitors; details: Cyt D 10 µg/mL, genistein 200 µM, CPZ 6 µg/mL, MβCD 1.5 mM, n = 3
A431 cells [3] = assay: Internalisation of FITC-labelled peptide, fluorescence microscopy; details: 0.25 mM, 37 °C, 16 h
Experimental: (§1) The selective internalisation property of peptide […] was tested on NHDF and A431 cells. These cells (200,000 cells/well) were seeded separately onto sterile glass coverslips which had been placed in a six-well plate, and incubated overnight at 37 °C. After changing the medium, the cells were added with FITC-conjugated peptide (FITC-[…]; 0.25 mM; Mimotopes Pty Ltd, Clayton, Victoria, Australia), and incubated for 16 h at 37 °C. The cells were then washed 3 times with PBS and fixed with paraformaldehyde [3.7% (w/v)]. Hoechst 33342 was added and incubated for 10 min to stain the cell nuclei. The cells were mounted onto a glass slide and observed under a fluorescence microscope.
(§2) A431 and HT29 cell lines (200,000 cells/well) were seeded onto sterile glass coverslips in a six-well plate and incubated overnight at 37 °C. After changing the medium, peptide FITC-[…] (0.25 mM) was added to the cell lines and incubated at 37 °C for 16 h in a CO2 incubator. The cells were then washed, fixed, stained with Hoechst 33342, and viewed under a fluorescence microscope. The amount of phage internalised into A431 and HT29 cells (1 × 10^6 cells) which had been incubated with the purified phage (1 × 10^12 pfu) at 37 °C for 12 h was measured with the phage titration assay as described above.

NHDF cells = assay: as above; details: 0.25 mM, 37 °C, 16 h
Experimental: as §1

HT29 cells = assay: Internalisation of FITC-labelled peptide in cell line with lower EGFr expression; details: 0.25 mM, 37 °C, 16 h; HT29 9 × 10^3 EGFr/cell; fluorescence microscopy
Experimental: as §2

| Compound | Effect of endocytosis inhibitor on internalisation of peptide NRPDSAQFWLHH (green granular appearance) (A431 cells [1]) | Viability of A431 cells in the presence of inhibitor (A431 cells [2]) | Internalisation of FITC-labelled peptide into A431 cells (A431 cells [3]) | Internalisation of FITC-labelled peptide into NHDF cells (NHDF cells) | Internalisation of FITC-labelled peptide into HT29 cells (HT29 cells) |
| --- | --- | --- | --- | --- | --- |
| CN(C)CCCN1c2ccccc2Sc2ccc(Cl)cc21 [CPZ, chlorpromazine hydrochloride] | reduced drastically | over 83% | – | – | – |
| C=C1[C@@H](C)[C@H]2[C@H](Cc3ccccc3)NC(=O)[C@]23[C@H](OC(C)=O)/C=C/[C@@](C)(O)C(=O)[C@@H](C)C/C=C/[C@H]3[C@@H]1O [Cyt D, cytochalasin D] | did not inhibit internalisation | over 83% | – | – | – |
| O=c1c(-c2ccc(O)cc2)coc2cc(O)cc(O)c12 [genistein] | did not inhibit internalisation | over 83% | – | – | – |
| methyl-β-cyclodextrin [MβCD] | reduced drastically | over 83% | – | – | – |
| {FITC}-NRPDSAQFWLHH | – | – | taken up efficiently | no significant fluorescent signal was observed | no significant green fluorescent granules were observed |
